Reference: PMC10292217, “Gene-nutrient interactions that impact magnesium homeostasis increase risk for neural tube defects in mice exposed to dolutegravir” (Frontiers in Cell and Developmental Biology, 2023)
Where two headings read alike, the source gives them in different places. Marks after values point to notes of the source that are not given here.

How the values were obtained:
[1] = system: P19C5 mouse embryonal carcinoma cell; set-up: method as in Kirkwood-Johnson et al., 2021; settings: exposure within the first 1-2 days; ref Kirkwood-Johnson et al., 2021; cited from earlier work
C3H/HeJ mice = system: C3H/HeJ mice; set-up: method as in Bade et al., 2021; settings: 50 mg/kg/d DTG oral gavage from GD 0.5; 1 NTD affected pup in 17 litters; ref Bade et al., 2021; cited from earlier work
[2] = system: Madin-Darby canine kidney II cells; set-up: method as in Zamek-Gliszczynski et al., 2019; settings: ref Zamek-Gliszczynski et al., 2019; cited from earlier work
zebrafish embryos = settings: exposure initiated at 3 h post-fertilization; ref Cabrera et al., 2019; cited from earlier work
rabbits = settings: 2020, cited from earlier work
rats = settings: 2020, cited from earlier work
SWV mice = assay: DTG-NTD susceptibility, embryo phenotyping on GD 9.5, SWV dams; assay type: in vivo, mouse
Description: Breeding colonies and experimental mice were housed in Thoren micro-isolator cages with autoclaved corncob bedding and maintained on a 12-h light-dark cycle in climate-controlled AAALAC-accredited animal facilities at Creighton University. Mice were given ad libitum access to autoclaved water and pelleted irradiated rodent chow. For timed matings, nulliparous female mice were placed with a male overnight (1 male:2-3 females). The presence of a vaginal plug the next morning was considered GD 0.5. Plugged females were weighed, placed into a separate cage, and randomly assigned to a treatment group. All animal procedures were performed in accordance with the Public Health Service (PHS) policy on Humane Care and Use of Laboratory Animals and approved by the Creighton University Institutional Animal Care and Use Committee (IACUC).
Dolutegravir (CAS 1051375-16-6, GSK1349572) was purchased from MedKoo Biosciences (Morrisville, NC). Pregnant mice were dosed with vehicle (dimethylsulfoxide: Solutol®: 50 mM N-methylglucamine in 3% mannitol [1:1:8, v:w:v]) ([Moss et al., 2015]) or DTG (500 mg/kg or 750 mg/kg) by daily oral gavage beginning on GD 0.5 and continuing until the day of sacrifice (GD 9.5). All treatments were administered in a volume of 0.1 mL/10 g bodyweight (bwt).
The SWV and LM/Bc breeding colonies have been maintained on Envigo Rodent Chow #8904 (a soy protein-based irradiated diet) for >20 years. C3H/HeJ and C57BL/6J mice (6–10 weeks old) were immediately placed on Envigo #8904 upon arrival at Creighton University and were maintained on this diet for a minimum of 1 month prior to analysis of basal plasma and urine cations. The National Research Council (NRC) estimate for the minimum Mg^2+ requirement in adult mice is […] of diet (0.05%). Magnesium in standard rodent diets ranges between […]; the Envigo #8904 soy diet contains .3% Mg^2+ by weight ([…] the NRC requirement) and was therefore considered a ‘high’ Mg^2+ diet. Sources of Mg^2+ in the soy diet include magnesium oxide (∼20%) and Mg^2+ found naturally in grain ingredients (∼80%); it was therefore not possible to remove Mg^2+ to create a soy-based version that was Mg^2+ deficient. To test the hypothesis that low maternal plasma Mg^2+ prior to conception would increase susceptibility to DTG-induced NTDs, it was necessary to switch to casein-based purified ingredient diets with defined levels of Mg^2+ added back. The following casein-based purified ingredient diets were selected as experimental diets: TD.120,574 high Mg^2+ diet (.3% Mg^2+ oxide added to match the .3% high Mg^2+ soy-based diet); TD.98341 control Mg^2+ diet with 0.05% Mg oxide added back to match the NRC requirement; and TD.93106 Mg^2+-deficient diet (<.003%, no Mg^2+ added back). The purified casein diets met or exceeded the NRC requirements for all other minerals and vitamins, including folic acid (Supplementary Table S1: Diet Comparison). Thus, the 4 experimental diets were as follows: 1) high Mg^2+ (.3%) soy diet; 2) high Mg^2+ ([…]) casein diet; 3) control Mg^2+ (.05%) casein diet; and 4) deficient Mg^2+ (<.003%) casein diet. […] Our initial DTG teratology studies were performed in mice on the high Mg^2+ soy diet. However, our objective in the second set of experiments was to reduce pre-conception plasma Mg^2+ levels prior to DTG exposure. To accomplish this objective, weaned female mice were placed on either the high Mg^2+ casein diet or one of the 2 casein-based experimental diets with reduced Mg^2+ (control or deficient) for a minimum of 2 weeks. After this minimum period of acclimation to the experimental casein-based diets, blood and urine samples were collected for Inductively Coupled Plasma Mass Spectrometry (ICP-MS) determination of Mg^2+ (and other cations).
Pregnant dams were anesthetized with isoflurane and sacrificed by cervical dislocation on GD 9.5. […]

[3] = cited from earlier work
[4] = system: human embryonic stem cell (hESC) lines; set-up: method as in Smith et al., 2022; settings: 2 different hESC lines; ref Smith et al., 2022; cited from earlier work
FOLR1 = system: FOLR1; set-up: method as in Gilmore et al., 2022; settings: human choriocarcinoma cells; ref Gilmore et al., 2022; cited from earlier work
[5] = preclinical studies, ref Stanislaus et al.
[6] = Mg2+-deficient (<0.003%) casein diet, DTG750
[7] = high Mg2+ (0.3%) soy diet, DTG 750 mg/kg/d oral GD 0.5-GD 9.5, average % (SD)
[8] = high Mg2+ (0.3%) soy diet, DTG 750 mg/kg/d oral GD 0.5-GD 9.5, mean (SD)
[9] = high Mg2+ (0.3%) soy diet, DTG 750 mg/kg/d oral GD 0.5-GD 9.5, mean (SD) per litter
[10] = human, non-pregnant, 50 mg single dose, ref Min et al., 2010
[11] = human, non-pregnant, 100 mg single dose, ref Min et al., 2010
[12] = human, non-pregnant, 100 mg × 7d, ref Wang et al., 2019
[13] = pregnant women, 2nd trimester, 50 mg/d, ref Mulligan et al., 2018

## C[C@@H]1CCO[C@H]2Cn3cc(C(=O)NCc4ccc(F)cc4F)c(=O)c(O)c3C(=O)N12 [DTG, Dolutegravir]
[1]
  growth and axial elongation: concentration-dependent inhibition of growth and axial elongation
C3H/HeJ mice
  NTD-affected litters: 5.8%
[2]
  effect on inhibition of folate transport: did not find a significant DTG or INSTI class effect
Zebrafish embryos
  mortality: Significant mortality
rabbits; oral doses up to 1000 mg/kg/d, GD 6 to GD 18, ref Stanislaus et al.
  DTG-related maternal or developmental toxicity: no significant evidence
rabbits; [5]
  NOAEL: 1000 mg/kg/day
rats; oral doses up to 1000 mg/kg/d, GD 6 to GD 17, ref Stanislaus et al.
  DTG-related maternal or developmental toxicity: no significant evidence
rats; [5]
  NOAEL: 1000 mg/kg/day
SWV mice; [6]
  NTD-affected litters: 75%
  NTD-affected litters / litters examined: 6/8
  NTDs per affected litter: 1-4
  total NTDs: 11
SWV mice; high Mg2+ (0.3%) soy diet, DTG 750 mg/kg/d oral GD 0.5-GD 9.5
  Affected litters %: 7.7%
SWV mice; [7]
  Dev delay/implants, index value: 2.0% (3.19)
  NTDs/embryos, index value: 1.8% (6.40)
  NTDs/implants, index value: 1.6% (5.94)
  Resorptions/implants, index value: 5.0% (7.62)
SWV mice; [8]
  Implants per litter: 13.15 (2.12)^**
  Resorptions per litter: 0.62 (0.87)
SWV mice; [9]
  Dev. delayed: 0.31 (0.48)
  NTDs: 0.23 (0.83)
  Total viable embryos: 12.54 (2.37)^**
SWV mice; high Mg2+ soy diet, DTG750
  NTD-affected litters / litters examined: 1/13
  total pups with exencephaly: 3
[3]; [10]
  AUC 0-24: 70.8 (50 mg single dose) ^1 µg*h/mL
  Cmax: 4.6 (50 mg single dose) ^1 µg/mL
  Tmax: 1.25 h (50 mg single dose) ^1
  t½: 13–14 h (50 mg single dose) ^1
[3]; [11]
  AUC 0-24: 131 (100 mg single dose) ^1 µg*h/mL
  Cmax: 8.1 (100 mg single dose) ^1 µg/mL
[3]; [12]
  AUC 0-24: 92.3 (100 mg × 7d) ^2 µg*h/mL
  Cmax: 6.7 (100 mg × 7d) ^2 µg/mL
[3]; [13]
  AUC 0-24: 47.6 (33.4–63.7) (2nd trimester, 50 mg/d) ^3 µg*h/mL
  Cmax: 3.62 (2.57–4.63) µg/mL
  Tmax: 2 h (2nd trimester, 50 mg/d) ^3
  t½: 11 h (2nd trimester, 50 mg/d) ^3
[4]
  effect on hESC: cytotoxicity and a dose-dependent loss of pluripotency
FOLR1
  FOLR1-mediated uptake: reduced
